In US12590062B2, “PD-1/PD-L1 inhibitors” (Gilead Sciences, Inc., priority 2017, dated 2026):

Key:
[1] = biological target: PD-1/PD-L1 (Homo sapiens, UniProt Q9NZQ7); assay: PD-1/PD-L1 biochemical protein-protein interaction assay (ALPHA); format: binding; conditions: 0.3 nM His tagged PD-L1, 2.5 nM biotinylated Fc-PD-1, 60 minutes at 25° C., read-out: IC50 PD-L1-PD-1 Alpha IC50-mono PD-L1-fcP-D1
Summary of the method: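 Bead proximity read-out: compound-driven loss of ALPHA signal between anti-His acceptor and streptavidin donor beads (20 μg/mL acceptor). Proteins: 0.3 nM His-PD-L1, 2.5 nM biotin-Fc-PD-1, final. 60 min, 25° C, Hepes pH 7.4 buffer. IC50 via four-parameter dose-response fit.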

[2] = biological target: T1, PD-1/PD-L1 interaction (Homo sapiens, UniProt Q9NZQ7); assay: PD-1/PD-L1 NFAT reporter co-culture assay; format: cell-based; conditions: Jurkat PD-1 NFAT-luciferase cells co-cultured with aAPC-PD-L1 CHO cells, 6 hrs at 37° C.; read-out: EC50 NFAT Luciferase
T1 construct: expressed in transfected cells; host or cells: CHO cells (aAPC-PD-L1) co-cultured with Jurkat cells overexpressing PD-1 and an NFAT-luciferase reporter
Summary of the method: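 First, CHO cells displaying anti-CD3 antibody and PD-L1 were plated overnight. Next, compound-treated PD-1 Jurkat NFAT-luciferase reporter cells in 2% FBS RPMI were added for 6 h at 37 °C. Finally, ONE-Glo luminescence was read and EC50 values fitted with a four-parameter equation.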

T1 sequence (Q9NZQ7 19-290): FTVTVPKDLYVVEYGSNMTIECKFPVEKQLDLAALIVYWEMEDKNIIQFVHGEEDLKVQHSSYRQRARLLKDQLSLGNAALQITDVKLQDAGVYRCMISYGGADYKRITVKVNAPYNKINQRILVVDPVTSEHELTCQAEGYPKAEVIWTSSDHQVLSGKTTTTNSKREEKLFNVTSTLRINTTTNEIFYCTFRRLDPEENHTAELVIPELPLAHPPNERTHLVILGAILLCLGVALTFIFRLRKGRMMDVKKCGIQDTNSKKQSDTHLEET
Sequence of PD-1/PD-L1 (Q9NZQ7 19-238 limits assumed): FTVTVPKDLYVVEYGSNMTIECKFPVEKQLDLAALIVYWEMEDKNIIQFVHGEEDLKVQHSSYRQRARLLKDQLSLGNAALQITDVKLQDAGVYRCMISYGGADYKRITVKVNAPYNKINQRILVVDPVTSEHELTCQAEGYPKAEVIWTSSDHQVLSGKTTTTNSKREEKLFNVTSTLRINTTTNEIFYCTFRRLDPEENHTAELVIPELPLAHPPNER

SMILES	IC50 [1] [nM]	EC50 [2] [nM]
COc1nc(OCc2cccc(-c3cccc(COc4ccc(CNC[C@H](C)O)c(OC)n4)c3C)c2C)ccc1CNC[C@H](C)O [Example 23, (2S,2′S)-1,1′-((((((2,2′-dimethyl-[1,1′-biphenyl]-3,3′-diyl)bis(methylene))bis(oxy))bis(2-methoxypyridine-6,3-diyl))bis(methylene))bis(azanediyl))bis(propan-2-ol)]	40.6	≥ 50000
COc1nc(O[C@@H]2c3cccc(-c4cccc5c4C[C@H](F)[C@@H]5Oc4nc(OC)c(CNC[C@@H](O)CC(=O)O)cc4Cl)c3C[C@@H]2F)c(Cl)cc1CNC[C@@H](O)CC(=O)O [Example 640, (3S,3′S)-4,4′-((((((1R,1′R,2S,2′S)-2,2′-difluoro-2,2′,3,3′-tetrahydro-1H,1′H-[4,4′-biindene]-1,1′-diyl)bis(oxy))bis(5-chloro-2-methoxypyridine-6,3-diyl))bis(methylene))bis(azanediyl))bis(3-hydroxybutanoic acid)]	1.09	≥ 50000
CS(=O)(=O)c1cncc(COc2nc(O[C@H]3CCc4c(-c5cccc6c5CC[C@@H]6Oc5nc(OCc6cncc(S(C)(=O)=O)c6)c(CNC[C@@H](O)CC(=O)O)cc5Cl)cccc43)c(Cl)cc2CNC[C@@H](O)CC(=O)O)c1 [Example 694]	0.051	96
COc1cc(OCc2cccc(-c3cccc(COc4nc(OC)c(CNC5(C(=O)O)CCC5)cc4Cl)c3C)c2C)c(Cl)cc1CNC1(C(=O)O)CCC1 [Example 486]	0.146	112
COc1cc(OCc2cccc(-c3cccc(COc4ccc(CNC[C@@H](O)CC(=O)O)c(OC)n4)c3C)c2C)ccc1CNC[C@@H](O)CC(=O)O [Example 27, (S)-4-(((6-((3′-((4-((((S)-3-carboxy-2-hydroxypropyl)amino)methyl)-3-methoxyphenoxy)methyl)-2,2′-dimethyl-[1,1′-biphenyl]-3-yl)methoxy)-2-methoxypyridin-3-yl)methyl)amino)-3-hydroxybutanoic acid]	2.3	25300
Cc1c(COc2cc(OCc3cncc(C#N)c3)c(CN[C@@](C)(CO)C(=O)O)cc2Cl)cccc1-c1cccc(-c2ccc(S(N)(=O)=O)cc2)c1C [Example 564]	0.293	80
COc1nc(OCc2cccc(-c3cccc(COc4ccc(CN[C@H](CO)C(=O)O)c(OC)n4)c3C)c2C)ccc1CN[C@H](CO)C(=O)O [Example 14]	2.1	13100
Cc1c(COc2ccc(CNC[C@@H](O)CC(=O)O)c(OCc3cncc(C#N)c3)n2)cccc1-c1cccc(COc2ccc(CNC[C@@H](O)CC(=O)O)c(=O)n2Cc2cncc(C#N)c2)c1C [Example 251, (S)-4-(((6-((3′-(((5-((((S)-3-carboxy-2-hydroxypropyl)amino)methyl)-1-((5-cyanopyridin-3-yl)methyl)-6-oxo-1,6-dihydropyridin-2-yl)oxy)methyl)-2,2′-dimethyl-[1,1′-biphenyl]-3-yl)methoxy)-2-((5-cyanopyridin-3-yl)methoxy)pyridin-3-yl)methyl)amino)-3-hydroxybutanoic acid]	2	25900
O=C(O)C[C@H](O)CNCc1ccc(OC2CCc3c(-c4cccc5c4CCC5Oc4ccc(CNC[C@@H](O)CC(=O)O)cc4)cccc32)cc1 (stereo partly drawn) [Example 681]	8.91	≥ 50000
Cc1c(COc2nc(OCc3cncc(S(C)(=O)=O)c3)c(CN[C@](C)(CO)C(=O)O)cc2Br)cccc1-c1cccc(COc2nc(OCc3cncc(S(C)(=O)=O)c3)c(CN[C@](C)(CO)C(=O)O)cc2Br)c1C [Example 40, (2R,2′R)-2,2′-((((((2,2′-dimethyl-[1,1′-biphenyl]-3,3′-diyl)bis(methylene))bis(oxy))bis(5-bromo-2-((5-(methylsulfonyl)pyridin-3-yl)methoxy)pyridine-6,3-diyl))bis(methylene))bis(azanediyl))bis(3-hydroxy-2-methylpropanoic acid)]	0.1	176
C=Cc1cc(CNC[C@@H](O)CC(=O)O)c(OC)nc1OCc1cccc(-c2cccc(COc3nc(OC)c(CNC[C@@H](O)CC(=O)O)cc3C=C)c2C)c1C [Example 120, (3S,3′S)-4,4′-((((((2,2′-dimethyl-[1,1′-biphenyl]-3,3′-diyl)bis(methylene))bis(oxy))bis(2-methoxy-5-vinylpyridine-6,3-diyl))bis(methylene))bis(azanediyl))bis(3-hydroxybutanoic acid)]	2	1300
Cc1c(COc2nc(OCc3cncc(C#N)c3)c(CNC[C@H](O)CC(=O)O)cc2Br)cccc1-c1cccc(COc2nc(OCc3cncc(C#N)c3)c(CNC[C@H](O)CC(=O)O)cc2Br)c1C [Example 252, (3R,3′R)-4,4′-((((((2,2′-dimethyl-[1,1′-biphenyl]-3,3′-diyl)bis(methylene))bis(oxy))bis(5-bromo-2-((5-cyanopyridin-3-yl)methoxy)pyridine-6,3-diyl))bis(methylene))bis(azanediyl))bis(3-hydroxybutanoic acid)]	0.3	333
COc1nc(OCc2cccc(-c3cccc(COc4ccc(CNC[C@@H](C)O)c(OC)n4)c3C)c2C)ccc1CNC[C@@H](C)O [Example 24, (2R,2′R)-1,1′-((((((2,2′-dimethyl-[1,1′-biphenyl]-3,3′-diyl)bis(methylene))bis(oxy))bis(2-methoxypyridine-6,3-diyl))bis(methylene))bis(azanediyl))bis(propan-2-ol)]	41.7	1890

The remaining lines, values ahead:

IC50 [1] [nM]	EC50 [2] [nM]	SMILES
0.064	188	Cc1c(COc2cc(OCc3cncc(C#N)c3)c(CNC[C@@H](O)CC(=O)O)cc2Cl)cccc1-c1cccc(-c2ccc(OCCNC[C@@H](O)CC(=O)O)c(F)c2)c1C [Example 314]
2	1550	Cc1c(COc2cc(OCc3cncc(C#N)c3)c(CNCCO)cc2Cl)cccc1-c1cccc(COc2cc(OCc3cncc(C#N)c3)c(CNC[C@@H](O)CC(=O)O)cc2Cl)c1C [Example 207, (S)-4-((5-Chloro-4-((3′-((2-chloro-5-((5-cyanopyridin-3-yl)methoxy)-4-(((2-hydroxyethyl)amino)methyl)phenoxy)methyl)-2,2′-dimethyl-[1,1′-biphenyl]-3-yl)methoxy)-2-((5-cyanopyridin-3-yl)methoxy)benzyl)amino)-3-hydroxybutanoic acid]
125	≥ 50000	Cc1c(COc2cc(O)c(CNC[C@@H](F)C(C)(C)O)cc2Cl)cccc1-c1cccc(COc2cc(OCc3cncc(C#N)c3)c(CNC[C@@H](F)C(C)(C)O)cc2Cl)c1C [Example 277, 5-((4-chloro-5-((3′-((2-chloro-4-((((R)-2-fluoro-3-hydroxy-3-methylbutyl)amino)methyl)-5-hydroxyphenoxy)methyl)-2,2′-dimethyl-[1,1′-biphenyl]-3-yl)methoxy)-2-((((R)-2-fluoro-3-hydroxy-3-methylbutyl)amino)methyl)phenoxy)methyl)nicotinonitrile]
22.7	511	Cc1c(COc2cc(OCc3cncc(C#N)c3)c(CNC[C@H](O)CO)cc2Br)cccc1-c1cccc(COc2cc(OCc3cncc(C#N)c3)c(CNC[C@H](O)CO)cc2Br)c1C [Example 259, 5,5′-((((((2,2′-dimethyl-[1,1′-biphenyl]-3,3′-diyl)bis(methylene))bis(oxy))bis(4-bromo-6-((((S)-2,3-dihydroxypropyl)amino)methyl)-3,1-phenylene))bis(oxy))bis(methylene))dinicotinonitrile]
0.836	181	COc1nc(OCc2cccc(-c3cccc(COc4nc(OCc5cncc(C#N)c5)c(CNC[C@@H](O)CC(=O)O)cc4Br)c3C)c2C)c(Br)cc1CNC[C@@H](O)CC(=O)O [Example 586]
0.2	500	Cc1c(COc2cc(OCc3cncc(C#N)c3)c(CNCCCC(=O)O)cc2Cl)cccc1-c1cccc(COc2cc(OCc3cncc(C#N)c3)c(CNCCCC(=O)O)cc2Cl)c1C [Example 164, 4,4′-((((((2,2′-dimethyl-[1,1′-biphenyl]-3,3′-diyl)bis(methylene))bis(oxy))bis(5-chloro-2-((5-cyanopyridin-3-yl)methoxy)-4,1-phenylene))bis(methylene))bis(azanediyl))dibutyric acid]
14.2	1740	Cc1c(COc2ccc(CNCCO)cc2)cccc1-c1cccc(COc2cc(OCc3cncc(C#N)c3)c(CNCCO)cc2Cl)c1C [Example 69, 5-((4-chloro-2-(((2-hydroxyethyl)amino)methyl)-5-((3′-((4-(((2-hydroxyethyl)amino)methyl)phenoxy)methyl)-2,2′-dimethyl-[1,1′-biphenyl]-3-yl)methoxy)phenoxy)methyl)nicotinonitrile]
77.8	2050	Cc1c(COc2cc(OCc3cncc(C#N)c3)c(CNC[C@@H](F)C(C)(C)O)cc2Cl)cccc1-c1cccc(COc2cc(OCc3cncc(C#N)c3)c(CNC[C@@H](F)C(C)(C)O)cc2Cl)c1C [Example 276, 5,5′-((((((2,2′-dimethyl-[1,1′-biphenyl]-3,3′-diyl)bis(methylene))bis(oxy))bis(4-chloro-6-((((R)-2-fluoro-3-hydroxy-3-methylbutyl)amino)methyl)-3,1-phenylene))bis(oxy))bis(methylene))dinicotinonitrile]
